Among the data in patent publication US12304899B2, “Factor XI activation inhibitors” (Merck Sharp & Dohme LLC, priority 2019, dated 2025) are EC50 values, retold here.

The target in the assay is T1, Human coagulation factor (F)XI (Homo sapiens, UniProt P03951).
T1 construct: purchased Haematologic Technologies Inc. (FXI); Enzyme Research Laboratories (FXIIa) HCXI-150 (FXI); HFXIIa (FXIIa)
T1 sequence (P03951 19-625): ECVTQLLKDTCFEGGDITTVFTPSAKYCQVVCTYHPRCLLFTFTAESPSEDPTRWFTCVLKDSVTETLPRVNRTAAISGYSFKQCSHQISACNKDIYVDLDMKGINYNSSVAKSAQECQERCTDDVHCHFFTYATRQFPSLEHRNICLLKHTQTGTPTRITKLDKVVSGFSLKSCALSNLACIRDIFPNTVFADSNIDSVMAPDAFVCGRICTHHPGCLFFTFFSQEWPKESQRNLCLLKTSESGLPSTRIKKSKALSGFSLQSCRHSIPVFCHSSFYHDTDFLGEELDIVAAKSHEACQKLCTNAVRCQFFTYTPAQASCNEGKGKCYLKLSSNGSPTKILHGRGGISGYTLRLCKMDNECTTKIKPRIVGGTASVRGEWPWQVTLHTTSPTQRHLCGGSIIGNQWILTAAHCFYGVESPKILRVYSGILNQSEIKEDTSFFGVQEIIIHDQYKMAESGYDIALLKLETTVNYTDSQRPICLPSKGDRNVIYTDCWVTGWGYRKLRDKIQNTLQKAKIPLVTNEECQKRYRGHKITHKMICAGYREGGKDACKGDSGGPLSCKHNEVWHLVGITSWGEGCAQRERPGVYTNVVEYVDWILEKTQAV
The experiment in a line: Inhibition of FXIIa mediated activation of FXI (activation of human Factor XI to XIa by human Factor α-XIIa). In kind it is biochemical. Conditions: human FXI pre-incubated with compound 30 min at 22° C., activation by human FXIIa 60 min, z-GPR-AFC substrate fluorescence, 4 parameter logistic fit; read-out: Inhibition of FXIIa meditated activation of FXI. The protocol: Inhibition of FXIIa Mediated Activation of FXI
Activation of Human Factor XI to XIa by Human Factor α-XIIa
The assay was performed in 50 mM HEPES, 150 mM NaCl, 5 mM CaCl2, 0.1% PEG-8000, pH 7.4 buffer in black, flat-bottom, polystyrene microplates (Corning, Cat #3573). Serial dilutions (10-point, 3.333-fold) of the test compounds delivered as 10 mM DMSO stocks were prepared in the Labcyte Echo-qualified PP 384 well microplates (Labcyte, Cat #P-05525). Human coagulation factor (F)XI (Haematologic Technologies Inc., Cat #HCXI-150, concentration 46 nM, 19.5 uL) was pre-incubated with 0.5 uL of the test compounds for 30 min at 22° C. The activation was initiated by addition of 10 uL of human coagulation factor (F)XIIa (Enzyme Research Laboratories, Cat #HFXIIa, concentration 30 nM) and the reaction proceeded for 60 min at 22° C., after which it was quenched by addition of a selective inhibitor of FXIIa (Compound 54 in International Patent Publication WO2018093695) concentration 600 uM in DMSO, 1 uL). 10 min after the quench, 29 uL of z-GPR-AFC substrate (Sigma, Cat #C0980-10 MG, concentration 200 uM) was added into each well and the detection reaction proceeded for 60 min at 22° C. Fluorescence at 405/510 nm was measured in end-point mode using an Envision plate-reader (Perkin Elmer). IDBS Activity Base XE (ABase) analysis using 4 parameter logistic fit was performed to determine Minimum, Maximum, EC50, and Slope Factor for each compound.
With `N#CC1(c2ccccn2)CCN(C(=O)c2cc(C(=O)N3CCCCC3)c3cc(OCc4nc5ccccc5s4)ccc3n2)CC1` [Example 57, 1-(6-(benzo[d]thiazol-2-yl-methoxy)-4-(piperidine-1-carbonyl)quinoline-2-car-bonyl)-4-(pyridin-2-yl)-piperidine-4-carbonitrile], the EC50 worked out at 21.8 nM.
On to `O=C(c1cc(C(=O)N2CCCCC2)c2cc(OCc3nc4ccccc4s3)ccc2n1)N1CCCN(Cc2nccs2)CC1` [Example 71, 4-(6-(benzo[d]thiazol-2-yl-methoxy)-4-(piperidine-1-carbonyl)quinoline-2-car-bonyl)-1-(thiazol-2-yl-methyl)-1,4-diazepan-1-ium 2,2,2-trifluoroacetate], for which the EC50 was 48.6 nM.
Take `N#CC1(c2ccccc2)CCN(C(=O)c2cc(C(=O)N3CCCCC3)c3cc(OCc4ccccn4)ccc3n2)CC1` [Example 48, 4-phenyl-1-(4-(piperidine-1-carbonyl)-6-(pyridin-2-yl-methoxy)quinoline-2-carbon-yl)piperidine-4-carbonitrile]: the EC50 was 44.9 nM.
In the case of `COc1ccc(COc2ccc3nc(C(=O)N4CCC(C#N)(c5ccccc5)CC4)cc(C(=O)N4CCCCC4)c3c2)c(Cl)c1` [Example 40, 1-(6-((2-chloro-4-methoxy-benzyl)oxy)-4-(piperidine-1-carbonyl)quinoline-2-carbon-yl)-4-phenylpiperidine-4-carbonitrile], the EC50 amounted to 49.9 nM.
To `N#CC1(c2ccccc2)CCN(C(=O)c2cc(C(=O)N3CCCCC3)c3cc(OCc4cn5ccccc5n4)ccc3n2)CC1` [Example 47, 1-(6-(imidazo[1,2-a]pyridin-2-ylmethoxy)-4-(piperidine-1-carbonyl)quinoline-2-carbonyl)-4-phenylpiperi-dine-4-carbonitrile] belongs 13.8 nM; to `N#CC1(c2ccccc2)CCN(C(=O)c2cc(C(=O)N3CCCCC3)c3cc(OCc4ccc([N+](=O)[O-])cc4)ccc3n2)CC1` [Example 37, 1-(6-((4-nitrobenzyl)oxy)-4-(piperidine-1-carbonyl)quin-oline-2-carbonyl)-4-phenyl-piperidine-4-carbonitrile], 48.2 nM; to `O=C(c1cc(C(=O)N2CCCCC2)c2cc(OCc3ccc(C(F)(F)F)nc3)ccc2n1)N1CCC(n2cccn2)CC1` [Example 10, (4-(1H-pyrazol-1-yl)piperidin-1-yl)(4-(piperidine-1-carbon-yl)-6-((6-(trifluoromethyl)-pyridin-3-yl)methoxy)-quinolin-2-yl)methanone], 21.8 nM.
On to `Cn1c(COc2ccc3nc(C(=O)N4CCC(n5cccn5)CC4)cc(C(=O)N4CCCCC4)c3c2)nc2ccccc21` [Example 24, (4-(1H-pyrazol-1-yl)piperidin-1-yl)(6-((1-methyl-1H-benzo-[d]imidazol-2-yl)methoxy)-4-(piperidine-1-carbonyl)-quinolin-2-yl)methanone], for which the EC50 amounted to 28.9 nM.
For the molecule `O=C(c1cc(C(=O)N2CCCCC2)c2cc(OCc3cn4c(F)cccc4n3)ccc2n1)N1CCC(n2cccn2)CC1` [Example 11, (4-(1H-pyrazol-1-yl)piperidin-1-yl)(6-((5-fluoroimidazo[1,2-a]pyridin-2-yl)methoxy)-4-(piperidine-1-carbonyl)-quinolin-2-yl)methanone], the EC50 amounted to 35.1 nM.
For `N#CC1(n2cccn2)CCN(C(=O)c2cc(C(=O)N3CCCCC3)c3cc(OCc4ccc5snnc5c4)ccc3n2)CC1` [Example 76, 1-(6-(benzo[d][1,2,3]thiadiazol-5-ylmethoxy)-4-(piperidine-1-carbonyl)quinoline-2-carbonyl)-4-(1H-pyrazol-1-yl)piperidine-4-carbonitrile], the EC50 was found to be 10.2 nM.
To `O=C(c1cc(C(=O)N2CCCCC2)c2cc(OCc3nc4ccccc4s3)ccc2n1)N1CC[C@H]2OCCC[C@@H]2C1` [Example 70] belongs 40.2 nM.
